# Test results as given in patent US20230304058A1, “NOVEL 5'CAP ANALOG HAVING CAP2 STRUCTURE AND PREPARATION METHOD THEREFOR” (Shenzhen Rhegen Biotechnology Co., Ltd., priority 2020, published 2023).
# Key:
# [1] = molecular target: T7 Enzyme Mix (Escherichia phage T7, UniProt P00573); test: In vitro transcription mRNA synthesis with cap analog, reaction yield; assay type: biochemical; details: per ml transcription reaction system; 37° C. for 6 h; LiCl purification
# Description: 1. Before synthesizing mRNA, linearize the plasmid with Notl, digested at […] overnight;
# 2. Extract with DNA template;
# React at 37° C. for 6 h. Digest with TURBO DNase for 15 min.
# 4. Purify the transcription products using LiCl solution and calculate the reaction yields.
# [2] = tested on: mRNA; test: mRNA capping rate by RNase H cleavage and LC-MS; assay type: biochemical; details: ratio of capped and uncapped mRNA
# Source text: The mRNA molecules with different Cap structures obtained in Example 1 were subjected to enzymatic cleavage, and the ratio of capped and uncapped mRNA molecules could be determined in a liquid chromatography-mass spectrometry analysis experiment.
# 1. Concentrate the beads using a magnet, aspirate the supernatant storage solution, and add an equal volume of 0.1 M NaOH +0.05 M NaCl;
# 2. Aspirate the supernatant and resuspend the beads with an equal volume of 0.1 M NaCl, keep the concentration constant;
# 3. Anneal mRNA and cleavage tags, configure the following reaction system;
# Gradient annealing: 95° C. 5 min
# 4. Combining cleavage tags with beads • Beads were centrifuged at 15,000 g for 5 min, and the supernatant was removed, then 120 μl of annealed mRNA and tags were added and incubated for 30 min at room temperature, during which time they were gently shaken to ensure adequate binding.
# 5. Enzyme cleavage using RNase H; • Add 10 μl RNase H and incubate at 37° C. for 3 h. Precipitate the beads with magnet and discard the supernatant. • Add 100 μl washing buffer, mix thoroughly, magnet precipitate for 2 min, and discard the supernatant. Repeat 3 times. • Wash with DI water for 3 times.
# 6. Hydrolysis with RppH; • Use 10 units RppH in nebuffer 2 to hydrolyze at room temperature for 1 h.
# DI water was aspirated, 100 μl of 75% ethanol preheated to 80° C. was added, incubat for 3 min, and magnet precipitat for 3 min. The supernatant was taken, followed by evaporating, and centrifuge for 45 min to a volume of 10 μl. Finally, the sample was resuspended in 50 μl of […] EDTA/1% MeOH and left for LC-MS analysis.
# 9. the mRNA capping rate of different Cap analogs synthesized was analyzed with LC-MS.
# [3] = tested on: TLR3, TLR7, TLR8 and RIG-1; test: Intracellular immunogenicity of capped mRNA by RNA immunoprecipitation and quantitative PCR; assay type: cell-based; details: relative to ARCA; Human-derived PBMC cells, 5 μg mRNA, Lipofectamine 2000, 24 h
# Description: Experimental methods: the intracellular immunoproteins TLR3, TLR7, TLR8 and RIG-1 were immunoprecipitated together with their bound RNAs by RNA immunoprecipitation, and finally these mRNAs were identified by real-time quantitative PCR, and their relative abundance was proportional to their immunogenicity.
# The cells were collected by trypsin digestion 24 h later and resuspended in PBS, centrifuged, and collected.
# Fixative was added to the cells, and after 15 minutes glycine was added for termination of fixation, followed by centrifugation to collect the cells. Cells were resuspended by adding lysate, incubated on ice at 4° C. for 30 min, centrifuged at 2400 g for 10 min, and the supernatant was collected.
# TLR3, TLR7, TLR8 and RIG-1 antibodies (2-10 μg) were added to the supernatant (6-10 mg) followed by gentle incubation at 4° C. for 2 hours. Protein AIG beads (40 μL) were then added to them and incubated gently for 1 h at 4° C.
# Centrifuge at 2500 rpm for 30 seconds with precipitated magnetic beads and remove the supernatant. Resuspend the beads in 500 μL of RIP buffer. Wash in RIP buffer a total of three times, followed by one wash in PBS.
# Resuspend magnetic beads in TRIzol RNA Extraction Reagent (1 mL) and isolate co-precipitated RNA, and then elute RNA using nuclease-free water (20 μL).
# 6. Reverse transcribe (RT) the RNA into cDNA and design primers according to the mRNA sequence for quantitative PCR analysis. mRNA immunogenicity is proportional to the number of mRNA copies precipitated by magnetic beads.
# Sequence of T7 Enzyme Mix (P00573 whole entry): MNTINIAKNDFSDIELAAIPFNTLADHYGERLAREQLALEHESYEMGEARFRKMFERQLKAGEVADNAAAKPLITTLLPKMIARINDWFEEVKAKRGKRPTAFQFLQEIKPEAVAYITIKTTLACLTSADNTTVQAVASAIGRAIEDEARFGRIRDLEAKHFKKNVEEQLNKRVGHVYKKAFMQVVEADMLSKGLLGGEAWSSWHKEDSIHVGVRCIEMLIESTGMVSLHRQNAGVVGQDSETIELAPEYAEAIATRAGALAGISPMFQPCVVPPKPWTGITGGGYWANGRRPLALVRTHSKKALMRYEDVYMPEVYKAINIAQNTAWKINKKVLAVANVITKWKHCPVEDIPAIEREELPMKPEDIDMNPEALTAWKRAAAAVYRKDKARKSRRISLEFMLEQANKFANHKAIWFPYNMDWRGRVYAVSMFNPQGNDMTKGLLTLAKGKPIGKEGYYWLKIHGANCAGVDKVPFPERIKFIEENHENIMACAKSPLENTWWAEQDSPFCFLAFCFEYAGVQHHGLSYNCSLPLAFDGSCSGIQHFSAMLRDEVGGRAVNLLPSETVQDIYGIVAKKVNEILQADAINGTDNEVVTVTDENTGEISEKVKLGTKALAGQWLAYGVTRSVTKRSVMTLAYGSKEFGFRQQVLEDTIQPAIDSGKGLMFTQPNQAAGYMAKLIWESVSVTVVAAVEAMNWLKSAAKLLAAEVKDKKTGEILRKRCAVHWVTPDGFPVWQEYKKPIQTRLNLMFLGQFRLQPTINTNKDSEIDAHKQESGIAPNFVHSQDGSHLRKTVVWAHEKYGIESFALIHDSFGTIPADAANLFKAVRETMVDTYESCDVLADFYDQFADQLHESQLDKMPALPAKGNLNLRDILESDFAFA
Compound,Mass of final product obtained from 1 ml mRNA synthesis reaction system [1] [mg],mRNA capping rates when using different Cap structures [2] [%],Intracellular immunogenicity of mRNA when using different Cap structures [3]
"CO[C@@H]1[C@H](O)[C@@H](COP(=O)(O)O[C@H]2[C@@H](OC)[C@H](n3cnc4c(=O)[nH]c(N)nc43)O[C@@H]2COP(=O)(O)OP(=O)(O)OP(=O)([O-])OC[C@H]2O[C@@H](n3c[n+](C)c4c(=O)[nH]c(N)nc43)[C@H](O)[C@@H]2O)O[C@H]1n1ccc(=O)[nH]c1=O [Cap analog 14, m7G(5′)ppp(5′)(2′OMeG)p(2′OMeU)]",5.5,94.82,0.35
"CO[C@@H]1[C@H](O)[C@@H](COP(=O)(O)O[C@H]2[C@@H](OC)[C@H](n3ccc(N)nc3=O)O[C@@H]2COP(=O)(O)OP(=O)(O)OP(=O)([O-])OC[C@H]2O[C@@H](n3c[n+](C)c4c(=O)[nH]c(N)nc43)[C@H](O)[C@@H]2O)O[C@H]1n1ccc(=O)[nH]c1=O [Cap analog 15, m7G(5′)ppp(5′)(2′OMeC)p(2′OMeU)]",4.6,94.83,0.34
"CO[C@@H]1[C@H](O)[C@@H](COP(=O)(O)O[C@H]2[C@@H](OC)[C@H](n3ccc(=O)[nH]c3=O)O[C@@H]2COP(=O)(O)OP(=O)(O)OP(=O)([O-])OC[C@H]2O[C@@H](n3c[n+](C)c4c(=O)[nH]c(N)nc43)[C@H](O)[C@@H]2O)O[C@H]1n1ccc(=O)[nH]c1=O [Cap analog 16, m7G(5′)ppp(5′)(2′OMeU)p(2′OMeU)]",4.2,94.84,0.48
"CO[C@@H]1[C@H](O)[C@@H](COP(=O)(O)O[C@H]2[C@@H](OC)[C@H](n3cnc4c(N)ncnc43)O[C@@H]2COP(=O)(O)OP(=O)(O)OP(=O)([O-])OC[C@H]2O[C@@H](n3c[n+](C)c4c(=O)[nH]c(N)nc43)[C@H](O)[C@@H]2OC)O[C@H]1n1cnc2c(=O)[nH]c(N)nc21 [Cap analog 17, 3-O-Me-m7G(5′)ppp(5′)(2′OMeA)p(2′OMeG)]",4.7,94.91,0.44
"CO[C@@H]1[C@H](O)[C@@H](COP(=O)(O)O[C@H]2[C@@H](OC)[C@H](n3cnc4c(=O)[nH]c(N)nc43)O[C@@H]2COP(=O)(O)OP(=O)(O)OP(=O)([O-])OC[C@H]2O[C@@H](n3c[n+](C)c4c(=O)[nH]c(N)nc43)[C@H](O)[C@@H]2OC)O[C@H]1n1cnc2c(=O)[nH]c(N)nc21 [Cap analog 18, 3-O-Me-m7G(5′)ppp(5′)(2′OMeG)p(2′OMeG)]",4.1,94.98,0.31
"CO[C@@H]1[C@H](OP(=O)(O)OC[C@H]2O[C@@H](n3cnc4c(=O)[nH]c(N)nc43)[C@H](OC)[C@@H]2O)[C@@H](COP(=O)(O)OP(=O)(O)OP(=O)([O-])OC[C@H]2O[C@@H](n3c[n+](C)c4c(=O)[nH]c(N)nc43)[C@H](O)[C@@H]2OC)O[C@H]1n1ccc(N)nc1=O [Cap analog 19, 3-O-Me-m7G(5′)ppp(5′)(2′OMeC)p(2′OMeG)]",4.4,95,0.26
"CO[C@@H]1[C@H](OP(=O)(O)OC[C@H]2O[C@@H](n3cnc4c(=O)[nH]c(N)nc43)[C@H](OC)[C@@H]2O)[C@@H](COP(=O)(O)OP(=O)(O)OP(=O)([O-])OC[C@H]2O[C@@H](n3c[n+](C)c4c(=O)[nH]c(N)nc43)[C@H](O)[C@@H]2OC)O[C@H]1n1ccc(=O)[nH]c1=O [Cap analog 20, 3-O-Me-m7G(5′)ppp(5′)(2′OMeU)p(2′OMeG)]",4.6,94.42,0.51
"CO[C@@H]1[C@H](O)[C@@H](COP(=O)(O)O[C@H]2[C@@H](OC)[C@H](n3cnc4c(N)ncnc43)O[C@@H]2COP(=O)(O)OP(=O)(O)OP(=O)([O-])OC[C@H]2O[C@@H](n3c[n+](C)c4c(=O)[nH]c(N)nc43)[C@H](O)[C@@H]2OC)O[C@H]1n1cnc2c(N)ncnc21 [Cap analog 21, 3-O-Me-m7G(5′)ppp(5′)(2′OMeA)p(2′OMeA)]",4.8,94.55,0.15
"CO[C@@H]1[C@H](O)[C@@H](COP(=O)(O)O[C@H]2[C@@H](OC)[C@H](n3cnc4c(=O)[nH]c(N)nc43)O[C@@H]2COP(=O)(O)OP(=O)(O)OP(=O)([O-])OC[C@H]2O[C@@H](n3c[n+](C)c4c(=O)[nH]c(N)nc43)[C@H](O)[C@@H]2OC)O[C@H]1n1cnc2c(N)ncnc21 [Cap analog 22, 3-O-Me-m7G(5′)ppp(5′)(2′OMeG)p(2′OMeA)]",4.6,94.83,0.29
"CO[C@@H]1[C@H](OP(=O)(O)OC[C@H]2O[C@@H](n3cnc4c(N)ncnc43)[C@H](OC)[C@@H]2O)[C@@H](COP(=O)(O)OP(=O)(O)OP(=O)([O-])OC[C@H]2O[C@@H](n3c[n+](C)c4c(=O)[nH]c(N)nc43)[C@H](O)[C@@H]2OC)O[C@H]1n1ccc(N)nc1=O [Cap analog 23, 3-O-Me-m7G(5′)ppp(5′)(2′OMeC)p(2′OMeA)]",4.5,94.65,0.41
"CO[C@@H]1[C@H](OP(=O)(O)OC[C@H]2O[C@@H](n3cnc4c(N)ncnc43)[C@H](OC)[C@@H]2O)[C@@H](COP(=O)(O)OP(=O)(O)OP(=O)([O-])OC[C@H]2O[C@@H](n3c[n+](C)c4c(=O)[nH]c(N)nc43)[C@H](O)[C@@H]2OC)O[C@H]1n1ccc(=O)[nH]c1=O [Cap analog 24, 3-O-Me-m7G(5′)ppp(5′)(2′OMeU)p(2′OMeA)]",4.7,94.72,0.48
"CO[C@@H]1[C@H](O)[C@@H](COP(=O)(O)O[C@H]2[C@@H](OC)[C@H](n3cnc4c(N)ncnc43)O[C@@H]2COP(=O)(O)OP(=O)(O)OP(=O)([O-])OC[C@H]2O[C@@H](n3c[n+](C)c4c(=O)[nH]c(N)nc43)[C@H](O)[C@@H]2OC)O[C@H]1n1ccc(N)nc1=O [Cap analog 25, 3-O-Me-m7G(5′)ppp(5′)(2′OMeA)p(2′OMeC)]",4.1,94.8,0.29
"CO[C@@H]1[C@H](O)[C@@H](COP(=O)(O)O[C@H]2[C@@H](OC)[C@H](n3cnc4c(=O)[nH]c(N)nc43)O[C@@H]2COP(=O)(O)OP(=O)(O)OP(=O)([O-])OC[C@H]2O[C@@H](n3c[n+](C)c4c(=O)[nH]c(N)nc43)[C@H](O)[C@@H]2OC)O[C@H]1n1ccc(N)nc1=O [Cap analog 26, 3-O-Me-m7G(5′)ppp(5′)(2′OMeG)p(2′OMeC)]",4.6,94.97,0.49
